This note sets out measurements from US5610154A, “Bicyclic carboxamides” (John Wyeth & Brother, Ltd., priority 1994, dated 1997).

This experiment deals with T1, 5-HT1A receptor (Rattus norvegicus, UniProt P19327).
T1 construct: rat hippocampal membrane homogenate; from tissue; host or cells: rat hippocampus, membrane homogenate
T1 sequence (P19327 1-422): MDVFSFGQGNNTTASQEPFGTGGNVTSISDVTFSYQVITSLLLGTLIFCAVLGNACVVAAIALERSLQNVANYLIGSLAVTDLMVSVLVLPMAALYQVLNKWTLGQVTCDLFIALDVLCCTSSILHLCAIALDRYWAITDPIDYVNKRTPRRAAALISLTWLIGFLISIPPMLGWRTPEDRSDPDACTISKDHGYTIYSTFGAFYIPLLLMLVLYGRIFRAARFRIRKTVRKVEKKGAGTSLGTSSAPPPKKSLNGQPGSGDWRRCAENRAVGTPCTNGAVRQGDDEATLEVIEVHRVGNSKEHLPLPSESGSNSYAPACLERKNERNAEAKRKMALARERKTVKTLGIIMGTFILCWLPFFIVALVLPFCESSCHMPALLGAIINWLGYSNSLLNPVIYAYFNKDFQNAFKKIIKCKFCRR
Description: 5-HT1A receptor binding activity in rat hippocampal membrane homogenate (method of B. S. Alexander and M. D. Wood). On the procedure: The compounds of the invention are tested for 5-HT1A receptor binding activity in rat hippocampal membrane homogenate by the method of B. S. Alexander and M. D. Wood, J. Pharm. Pharmacol., 1988, 40, 888-891.
Usually IC50 stands for the concentration needed to halve the response being measured. `COc1ccccc1N1CCN(CCC(C(=O)N2C3CCCC2CC3)c2ccccc2)CC1` (centres unmarked) [Example 1, 1-(8-Aza-bicyclo[3.2.1]oct-8-yl)-4-[4-(2-methoxy-phenyl)-piperazin-1-yl]-2-phenyl-butan-1-one] showed a 50% inhibitory concentration (IC50) of 3.3 nM. The value for `COc1ccc(F)cc1N1CCN(CCC(C(=O)N2C3CCCC2CC3)c2ccccc2)CC1` (centres unmarked) [Example 2, 1-(8-Aza-bicyclo[3.2.1]oct-8-yl)-4-[4-(5-fluoro-2-methoxy-phenyl)-piperazin-1-yl]-2-phenyl-butan-1-one] was 1.48 nM; that for `O=C(C(CCN1CCN(c2cccc3[nH]ccc23)CC1)c1ccccc1)N1C2CCCC1CC2` (centres unmarked) [Example 5, 1-(8-Aza-bicyclo[3.2.1]oct-8-yl)-4-[4-(1H-indol-4-yl)-piperazin-1-yl]-2-phenyl-butan-1-one] was 3.73 nM. The value for `O=C(C(CCN1CCN(c2ccccn2)CC1)c1ccccc1)N1C2CCCC1CC2` (centres unmarked) [Example 8, 1-(8-Aza-bicyclo[3.2.1]oct-8-yl)-2-phenyl-4-[4-(pyridin-2-yl)-piperazin-1-yl]-butan-1-one] was 3.5 nM; that for `O=C(C(CCN1CCN(c2ncccc2C(F)(F)F)CC1)c1ccccc1)N1C2CCCC1CC2` (centres unmarked) [Example 10] was 17.9 nM. Regarding `O=C(C(CCN1CCN(c2cccc3[nH]ccc23)CC1)c1ccccc1)N1CC2CCC(CC2)C1` (centres unmarked) [Example 14, 1-(3-Aza-bicyclo[3.2.2]non-3-yl)-4-[4-(1H-indol-4-yl)-piperazin-1-yl]-2-phenylbutan-1-one], the IC50 amounted to 1.96 nM. `COc1ccccc1N1CCN(CCC(C(=O)N2CC3CCC(CC3)C2)c2ccccc2)CC1` (centres unmarked) [Example 15] registered a 50% inhibitory concentration (IC50) of 0.58 nM. Take `COc1ccccc1N1CCN(CCC(C(=O)N2CC3CC=CCC3C2)c2ccccc2)CC1` (centres unmarked) [Example 16, 1-(1,3,3a,4,7,7a-Hexahydroisoindol-2-yl)-4-[4-(2-methoxyphenyl)piperazin-1-yl]-2-phenylbutan-1-one]: the IC50 stood at 4.46 nM.
